Measurements taken from patent US20250282768A1 (Janssen Pharmaceutica NV, priority 2022, published 2025).

Test system: p-IKKa levels in L363 (NIK translocated multiple myeloma) cells
Test: Assay 2: Effect of compounds on p-IKKa levels in L363 (NIK translocated multiple myeloma) cells
Format: cell-based
Details: Homo sapiens, L-363, 6 h, read-out: Assay 2 IC50 (nM), p-IKKa (Ser 176/180) in BAFF stimulated L363 cells with MG132, 6 h; average if tested more than once
Summary of the method: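 Read-out is p-IKKa Ser176/180 by AlphaLISA SureFire in lysates. Cells were BAFF-primed (250 ng/ml) overnight or left unstimulated, then exposed 6 h at 37 °C to compound with MG132 (10 μM), 0.3% DMSO. IC50 from sigmoidal curve fit, normalized between stimulated and unstimulated controls.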

Row | SMILES | IC50 [nM]
1 | CN1CC[C@@](O)(c2cc(-c3cccc(-c4ccnc(NCCC(F)(F)F)n4)n3)no2)C1=O [Example 435, (R)-3-Hydroxy-1-methyl-3-(3-(6-(2-((3,3,3-trifluoropropyl)amino)pyrimidin-4-yl)pyridin-2-yl)isoxazol-5-yl)pyrrolidin-2-one] | 50 to 500
2 | Cc1ncccc1Nc1nccc(-c2cccc(-n3cc([C@]4(O)CCN(C)C4=O)nn3)n2)n1 [Example 190, (R)-3-Hydroxy-1-methyl-3-(1-(6-(2-((2-methylpyridin-3-yl)amino)pyrimidin-4-yl)pyridin-2-yl)-1H-1,2,3-triazol-4-yl)pyrrolidin-2-one] | < 50
3 | Cc1c(Nc2nccc(-c3cccc(-c4cc([C@]5(O)CCN(C)C5=O)on4)n3)n2)cnn1C [Example 222, (R)-3-(3-(6-(2-((1,5-Dimethyl-1H-pyrazol-4-yl)amino)pyrimidin-4-yl)pyridin-2-yl)isoxazol-5-yl)-3-hydroxy-1-methylpyrrolidin-2-one] | < 50
4 | Cc1c(Nc2nccc(-c3cccc(-c4cc([C@]5(O)CCN(C)C5=O)on4)n3)n2)cnn1CC(F)F [Example 225, (R)-3-(3-(6-(2-((1-(2,2-Difluoroethyl)-5-methyl-1H-pyrazol-4-yl)amino)pyrimidin-4-yl)pyridin-2-yl)isoxazol-5-yl)-3-hydroxy-1-methylpyrrolidin-2-one] | < 50
5 | C[C@@H](O)[C@H](Nc1nccc(-c2cccc(-c3cc([C@]4(O)CCN(C)C4=O)on3)n2)n1)c1ccccc1 [Example 159, (R)-3-Hydroxy-3-(3-(6-(2-(((1R,2R)-2-hydroxy-1-phenylpropyl)amino)pyrimidin-4-yl)pyridin-2-yl)isoxazol-5-yl)-1-methylpyrrolidin-2-one] | 50 to 500
6 | C[C@@H](Nc1nccc(-c2cccc(-c3cc([C@]4(O)CCN(C)C4=O)on3)n2)n1)C(=O)N1CCCCC1 [Example 179, (R)-3-Hydroxy-1-methyl-3-(3-(6-(2-(((R)-1-oxo-1-(piperidin-1-yl)propan-2-yl)amino)pyrimidin-4-yl)pyridin-2-yl)isoxazol-5-yl)pyrrolidin-2-one] | 50 to 500
7 | CC1CCCCC1Nc1nccc(-c2cccc(-c3cc([C@]4(O)CCN(C)C4=O)on3)n2)n1 (mixture of isomers) [Example 341, (3R)-3-Hydroxy-1-methyl-3-(3-(6-(2-(((rac)-2-methylcyclohexyl)amino)pyrimidin-4-yl)pyridin-2-yl)isoxazol-5-yl)pyrrolidin-2-one] | 50 to 500
8 | CN1CC[C@](O)(c2ncc(-c3cccc(-c4ccnc(Nc5ccn(C)n5)n4)n3)s2)C1=O (single isomer, unassigned) [Example 83] | 50 to 500
9 | C[C@H](Nc1nccc(-c2cccc(-c3cc([C@]4(O)CCN(C)C4=O)on3)n2)n1)c1ccccn1 [Example 376, (R)-3-Hydroxy-1-methyl-3-(3-(6-(2-(((S)-1-(pyridin-2-yl)ethyl)amino)pyrimidin-4-yl)pyridin-2-yl)isoxazol-5-yl)pyrrolidin-2-one] | 50 to 500
10 | Cc1cc(Nc2nccc(-c3cccc(-c4cc([C@]5(O)CCN(C)C5=O)on4)n3)n2)nn1C [Example 282, (R)-3-(3-(6-(2-((1,5-Dimethyl-1H-pyrazol-3-yl)amino)pyrimidin-4-yl)pyridin-2-yl)isoxazol-5-yl)-3-hydroxy-1-methylpyrrolidin-2-one] | < 50
11 | Cc1ccc(Nc2nccc(-c3cccc(-c4cc([C@]5(O)CCN(C)C5=O)on4)n3)n2)cn1 [Example 332, (R)-3-Hydroxy-1-methyl-3-(3-(6-(2-((6-methylpyridin-3-yl)amino)pyrimidin-4-yl)pyridin-2-yl)isoxazol-5-yl)pyrrolidin-2-one] | 50 to 500
12 | CC1CC(Nc2nccc(-c3cccc(-c4cc([C@]5(O)CCN(C)C5=O)on4)n3)n2)CO1 (mixture of isomers) [Example 343, (R)-3-Hydroxy-1-methyl-3-(3-(6-(2-(((rac)-5-methyltetrahydrofuran-3-yl)amino)pyrimidin-4-yl)pyridin-2-yl)isoxazol-5-yl)pyrrolidin-2-one] | 50 to 500
13 | CN1CC[C@@](O)(c2cc(-c3cccc(-c4ccnc(NC[C@H]5CCO5)n4)n3)no2)C1=O [Example 358, (R)-3-Hydroxy-1-methyl-3-(3-(6-(2-((((R)-oxetan-2-yl)methyl)amino)pyrimidin-4-yl)pyridin-2-yl)isoxazol-5-yl)pyrrolidin-2-one] | > 500
14 | C[C@H](Nc1nccc(-c2cccc(-c3cc([C@]4(O)CCN(C)C4=O)on3)n2)n1)c1cnnn1C [Example 384, (R)-3-Hydroxy-1-methyl-3-(3-(6-(2-(((S)-1-(1-methyl-1H-1,2,3-triazol-5-yl)ethyl)amino)pyrimidin-4-yl)pyridin-2-yl)isoxazol-5-yl)pyrrolidin-2-one] | 50 to 500
15 | CN1CC[C@@](O)(c2cc(-c3cccc(-c4ccnc(Nc5ccncc5C#N)n4)n3)no2)C1=O [Example 290, (R)-4-((4-(6-(5-(3-Hydroxy-1-methyl-2-oxopyrrolidin-3-yl)isoxazol-3-yl)pyridin-2-yl)pyrimidin-2-yl)amino)nicotinonitrile] | 50 to 500
16 | CN1CC[C@@](O)(c2cc(-c3cccc(-c4ccnc(Nc5cn(C)nc5OCC(F)F)n4)n3)no2)C1=O [Example 54, (R)-3-(3-(6-(2-((3-(2,2-Difluoroethoxy)-1-methyl-1H-pyrazol-4-yl)amino)pyrimidin-4-yl)pyridin-2-yl)isoxazol-5-yl)-3-hydroxy-1-methylpyrrolidin-2-one] | < 50
17 | Cc1nn(CC(C)(C)O)cc1Nc1nccc(-c2cccc(-c3cc([C@@]4(O)C(=O)N(C)CC4(F)F)on3)n2)n1 [Example 235, (R)-4,4-Difluoro-3-hydroxy-3-(3-(6-(2-((1-(2-hydroxy-2-methylpropyl)-3-methyl-1H-pyrazol-4-yl)amino)pyrimidin-4-yl)pyridin-2-yl)isoxazol-5-yl)-1-methylpyrrolidin-2-one] | < 50
18 | CN1CC[C@@](O)(c2cc(-c3cccc(-c4ccnc(Nc5cnn(C)c5)n4)c3F)no2)C1=O [Example 427, (R)-3-(3-(2-Fluoro-3-(2-((1-methyl-1H-pyrazol-4-yl)amino)pyrimidin-4-yl)phenyl)isoxazol-5-yl)-3-hydroxy-1-methylpyrrolidin-2-one] | > 500
19 | CN1CC[C@](O)(c2nnc(-c3cccc(-c4ccnc(Nc5cnn(C)c5Cl)n4)n3)s2)C1=O [Example 103, (R)-3-(5-(6-(2-((5-chloro-1-methyl-1H-pyrazol-4-yl)amino)pyrimidin-4-yl)pyridin-2-yl)-1,3,4-thiadiazol-2-yl)-3-hydroxy-1-methylpyrrolidin-2-one] | > 500
20 | Cc1cc(Nc2nccc(-c3cccc(-c4cc([C@]5(O)CCN(C)C5=O)on4)n3)n2)ccn1 [Example 196, (R)-3-Hydroxy-1-methyl-3-(3-(6-(2-((2-methylpyridin-4-yl)amino)pyrimidin-4-yl)pyridin-2-yl)isoxazol-5-yl)pyrrolidin-2-one] | < 50
21 | CN1CC[C@@](O)(c2cc(-c3cccc(-c4ccnc(-n5ccc(N)n5)n4)n3)no2)C1=O [Example 32, (R)-3-(3-(6-(2-(3-Amino-1H-pyrazol-1-yl)pyrimidin-4-yl)pyridin-2-yl)isoxazol-5-yl)-3-hydroxy-1-methylpyrrolidin-2-one] | > 500
